# Assay results from article PMC9743090, “Induction of Ferroptosis in Glioblastoma and Ovarian Cancers by a New Pyrrole Tubulin Assembly Inhibitor” (Journal of Medicinal Chemistry, 2022).
# System: not listed separately
# Assay: Metabolic stability in mouse liver microsomes
# Assay type: in vitro ADME
# Conditions: MLM 0.5 mg/mL, 1 μM, n = 2
# Procedure: (§1) Mouse (Sigma Aldrich, CD-1 male, pooled) and human microsomes (Sigma Aldrich, human, pooled) at 0.5 mg/mL were preincubated with the test compound 15 dissolved in DMSO at 1 μM in phosphate buffer 50 mM, pH 7.4, and 3 mM MgCl2 for 10 min at 37 °C. The reaction was then started by adding the cofactor mixture solution (NADP, glucose-6-phosphate, glucose-6-phosphate dehydrogenase in 2% NaHCO3). Samples were taken at 0, 10, 30, 45, and 60 min and added to acetonitrile to stop the reaction. Samples were then centrifuged, and the supernatant was analyzed by LC–MS/MS to quantify the amount of the compound. A control sample without the cofactor was always added to check the chemical stability of the test compound. […] A fixed concentration of verapamil was added in every sample as an internal standard for LC–MS/MS analyses. The percentage of the area of the test compound remaining at the various incubation times was calculated with respect to the area of the compound at time 0 min.
# (§2) The rate constant, k (min^–1), derived for the exponential decay equation (peak area/IS vs time), was used to calculate the rate of Cli.
# (§3) Samples were analyzed under the following conditions: UPLC Waters coupled with an API 3200 triple-quadrupole (ABSciex); eluents, (phase A) 95% water, 5% acetonitrile + 0.1% HCOOH, (phase B) 5% water, 95% acetonitrile + 0.1% HCOOH; flow rate, 0.3 mL/min; column, Gemini-Nx 5 μm C18 110A (50 × 2.00 mm) at 35 °C; injection volume, 10 μL. Source conditions ESI positive: T 400 °C, Gas 1 30, Gas 2 35, CUR 30, IS 5500, CAD 5.
row,Cli ± SD,SMILES
1,710.8 ± 1.2 μL/min/mg protein,"CCOc1ccc2ccc(=O)oc2c1 [Compound 7-EC, 7-ethoxycoumarin, reference compound]"

# Same assay, conditions: male, CD-1, mouse, liver microsomes, pH 7.4; MLM 0.5 mg/mL, 1 μM, n = 2; read-out: t1/2 ± SD
row,"half-life at 1 h, 1 µM",SMILES
1,2 ± 0.1 min,"CCOc1ccc2ccc(=O)oc2c1 [Compound 7-EC, 7-ethoxycoumarin, reference compound]"

# System: not listed separately
# Assay: Metabolic stability in human liver microsomes
# Assay type: in vitro ADME
# Conditions: HLM 0.5 mg/mL, 1 μM, n = 2
# Procedure: as §1, §2, §3
Cli ± SD,t1/2 ± SD,SMILES
231.3 ± 37.5 μL/min/mg protein,6.1 ± 1.0 min,"CCOc1ccc2ccc(=O)oc2c1 [Compound 7-EC, 7-ethoxycoumarin, reference compound]"

# System: MCF-7 human breast carcinoma cells
# Assay: Inhibition of the growth of MCF-7 human breast carcinoma cells
# Assay type: cell-based
# Conditions: not given
# Procedure: The methodology for the evaluation of the growth of human MCF-7 breast carcinoma cells was previously described, except that cells were grown for 96 h for IC50 determinations.[66] U-87 MG and OVCAR-3 proliferation assays were performed plating 10^4 cells/cm^2 in a Multiwell 24. The day after, cells were treated with compound 15, and DMSO was used as a control. Cells were counted 48 h later with a Bürker counting chamber, after dilution in TrypanBlue (#T6146 Sigma-Aldrich).
row,SMILES,Inhibition of MCF-7 cell growth (in words)
1,"COc1cc(C(=O)c2cn(-c3ccncc3)cc2-c2ccccc2)cc(OC)c1OC [Compound 8, (4-Phenyl-1-(pyridin-4-yl)-1H-pyrrol-3-yl)(3,4,5-trimethoxyphenyl)methanone]",weak inhibitors
2,"COc1cc(C(=O)c2cn(-c3ccncc3)cc2-c2ccco2)cc(OC)c1OC [Compound 11, (4-(Furan-2-yl)-1-(pyridin-4-yl)-1H-pyrrol-3-yl)(3,4,5-trimethoxyphenyl)methanone]",weak inhibitors
3,"COc1cc(C(=O)c2cn(-c3cnccn3)cc2-c2ccco2)cc(OC)c1OC [Compound 12, (4-(Furan-2-yl)-1-(pyrazin-2-yl)-1H-pyrrol-3-yl)(3,4,5-trimethoxyphenyl)methanone]",strong inhibition
4,"COc1cc(C(=O)c2cn(-c3ncccn3)cc2-c2ccccc2)cc(OC)c1OC [Compound 13, (4-Phenyl-1-(pyrimidin-2-yl)-1H-pyrrol-3-yl)(3,4,5-trimethoxyphenyl)methanone]",strong inhibition
5,"COc1cc(C(=O)c2cn(-c3cncnc3)cc2-c2ccccc2)cc(OC)c1OC [Compound 14, (4-Phenyl-1-(pyrimidin-5-yl)-1H-pyrrol-3-yl)(3,4,5-trimethoxyphenyl)methanone]",poor inhibitors
6,"COc1cc(C(=O)c2cn(-c3cncnc3)cc2-c2ccco2)cc(OC)c1OC [Compound 16, (4-(Furan-2-yl)-1-(pyrimidin-5-yl)-1H-pyrrol-3-yl)(3,4,5-trimethoxyphenyl)methanone]",poor inhibitors

# Same assay, conditions: Homo sapiens, MCF7; inhibition of cell growth; cells grown for 96 h; read-out: MCF-7 IC50 ± SD
row,IC50,SMILES
1,2700 ± 500 nM,"COc1cc(C(=O)c2cn(-c3ccncc3)cc2-c2ccccc2)cc(OC)c1OC [Compound 8, (4-Phenyl-1-(pyridin-4-yl)-1H-pyrrol-3-yl)(3,4,5-trimethoxyphenyl)methanone]"
2,500 ± 70 nM,"COc1cc(C(=O)c2cn(-c3ccncc3)cc2-c2ccco2)cc(OC)c1OC [Compound 11, (4-(Furan-2-yl)-1-(pyridin-4-yl)-1H-pyrrol-3-yl)(3,4,5-trimethoxyphenyl)methanone]"
3,29 ± 1 nM,"COc1cc(C(=O)c2cn(-c3cnccn3)cc2-c2ccco2)cc(OC)c1OC [Compound 12, (4-(Furan-2-yl)-1-(pyrazin-2-yl)-1H-pyrrol-3-yl)(3,4,5-trimethoxyphenyl)methanone]"
4,25 ± 8 nM,"COc1cc(C(=O)c2cn(-c3ncccn3)cc2-c2ccccc2)cc(OC)c1OC [Compound 13, (4-Phenyl-1-(pyrimidin-2-yl)-1H-pyrrol-3-yl)(3,4,5-trimethoxyphenyl)methanone]"
5,> 5000 nM,"COc1cc(C(=O)c2cn(-c3cncnc3)cc2-c2ccccc2)cc(OC)c1OC [Compound 14, (4-Phenyl-1-(pyrimidin-5-yl)-1H-pyrrol-3-yl)(3,4,5-trimethoxyphenyl)methanone]"
6,580 ± 30 nM,"COc1cc(C(=O)c2cn(-c3cncnc3)cc2-c2ccco2)cc(OC)c1OC [Compound 16, (4-(Furan-2-yl)-1-(pyrimidin-5-yl)-1H-pyrrol-3-yl)(3,4,5-trimethoxyphenyl)methanone]"

# System: tubulin
# Assay: Inhibition of tubulin polymerization (assembly assay)
# Assay type: biochemical
# Conditions: tubulin at 10 μM, read-out: Tubulin IC50 ± SD
# Procedure: (§4) The assembly reaction mixtures contained 0.8 M monosodium glutamate (pH 6.6 with HCl in a 2 M stock solution), 10 μM tubulin, 4% (v/v) DMSO, and varying concentrations of the drug. Following a 15 min preincubation at 30 °C, samples were chilled on ice, GTP to 0.4 mM was added, and turbidity development was followed at 350 nm in a temperature-controlled recording spectrophotometer for 20 min at 30 °C. The extent of reaction was measured. Full experimental details were previously described.[63] For the colchicine binding assay, reaction mixtures contained 1.0 μM tubulin, 5.0 μM [^3H]colchicine, and 5.0 or 1.0 μM inhibitor and were incubated for 10 min at 37 °C. Complete details were described previously.[64]
row,IC50,SMILES
1,6700 ± 100 nM,"COc1cc(C(=O)c2cn(-c3ccncc3)cc2-c2ccccc2)cc(OC)c1OC [Compound 8, (4-Phenyl-1-(pyridin-4-yl)-1H-pyrrol-3-yl)(3,4,5-trimethoxyphenyl)methanone]"
2,3800 ± 700 nM,"COc1cc(C(=O)c2cn(-c3ccncc3)cc2-c2ccco2)cc(OC)c1OC [Compound 11, (4-(Furan-2-yl)-1-(pyridin-4-yl)-1H-pyrrol-3-yl)(3,4,5-trimethoxyphenyl)methanone]"
3,910 ± 50 nM,"COc1cc(C(=O)c2cn(-c3cnccn3)cc2-c2ccco2)cc(OC)c1OC [Compound 12, (4-(Furan-2-yl)-1-(pyrazin-2-yl)-1H-pyrrol-3-yl)(3,4,5-trimethoxyphenyl)methanone]"
4,690 ± 100 nM,"COc1cc(C(=O)c2cn(-c3ncccn3)cc2-c2ccccc2)cc(OC)c1OC [Compound 13, (4-Phenyl-1-(pyrimidin-2-yl)-1H-pyrrol-3-yl)(3,4,5-trimethoxyphenyl)methanone]"
5,> 20000 nM,"COc1cc(C(=O)c2cn(-c3cncnc3)cc2-c2ccccc2)cc(OC)c1OC [Compound 14, (4-Phenyl-1-(pyrimidin-5-yl)-1H-pyrrol-3-yl)(3,4,5-trimethoxyphenyl)methanone]"
6,6700 ± 900 nM,"COc1cc(C(=O)c2cn(-c3cncnc3)cc2-c2ccco2)cc(OC)c1OC [Compound 16, (4-(Furan-2-yl)-1-(pyrimidin-5-yl)-1H-pyrrol-3-yl)(3,4,5-trimethoxyphenyl)methanone]"

# System: tubulin
# Assay: Inhibition of [3H]colchicine binding to tubulin
# Conditions: inhibitor at 1:5:5 μM
# Procedure: as §4
row,Inhib. colch. binding 1-5-5 (% ± SD),SMILES
1,17 ± 4%,"COc1cc(C(=O)c2cn(-c3ccncc3)cc2-c2ccccc2)cc(OC)c1OC [Compound 8, (4-Phenyl-1-(pyridin-4-yl)-1H-pyrrol-3-yl)(3,4,5-trimethoxyphenyl)methanone]"
2,35 ± 3%,"COc1cc(C(=O)c2cn(-c3ccncc3)cc2-c2ccco2)cc(OC)c1OC [Compound 11, (4-(Furan-2-yl)-1-(pyridin-4-yl)-1H-pyrrol-3-yl)(3,4,5-trimethoxyphenyl)methanone]"
3,86 ± 2%,"COc1cc(C(=O)c2cn(-c3cnccn3)cc2-c2ccco2)cc(OC)c1OC [Compound 12, (4-(Furan-2-yl)-1-(pyrazin-2-yl)-1H-pyrrol-3-yl)(3,4,5-trimethoxyphenyl)methanone]"
4,88 ± 2%,"COc1cc(C(=O)c2cn(-c3ncccn3)cc2-c2ccccc2)cc(OC)c1OC [Compound 13, (4-Phenyl-1-(pyrimidin-2-yl)-1H-pyrrol-3-yl)(3,4,5-trimethoxyphenyl)methanone]"
5,4.7 ± 5%,"COc1cc(C(=O)c2cn(-c3cncnc3)cc2-c2ccccc2)cc(OC)c1OC [Compound 14, (4-Phenyl-1-(pyrimidin-5-yl)-1H-pyrrol-3-yl)(3,4,5-trimethoxyphenyl)methanone]"
6,19 ± 2%,"COc1cc(C(=O)c2cn(-c3cncnc3)cc2-c2ccco2)cc(OC)c1OC [Compound 16, (4-(Furan-2-yl)-1-(pyrimidin-5-yl)-1H-pyrrol-3-yl)(3,4,5-trimethoxyphenyl)methanone]"
